Measured values published in patent US9157104B2, “Method to improve phosphate solubilization in plants” (Consiglio Nazionale delle Ricerche, priority 2009, dated 2015).

Assays:
[1] = Soluble phosphate release into bacterial free medium containing 5% PR
Description: FIG. 4. Changes in soluble phosphate release into the bacterial free medium containing 5% phosphate rock (PR) as P source (P-limiting conditions for bacteria growing in a minimal media with PR). […] The amounts of each added organic acids derived from the data obtained in HPLC analysis and were reported in the Material and Methods section. Data are the mean±SD of five independent biological experiments (p<0.006). The concentration of soluble phosphate was estimated using a modification of Fiske and Subarrow method as described by […] et al. (37). […] Bacterial free medium was also treated with 0.5 mM IAA solution. A media that simulates growth is a media without bacteria or their supernatant. The media comprises only RP and the organic acids used as purified powder commercially available (SIGMA), the organic acids concentration used are that produced by the bacteria when grown in a defined media (with IAA, or without, or from RFD64).

acid phosphatase = test: Acid phosphatase activity under P-starved conditions; format: cell-based, S. meliloti; settings: phosphate starvation; vs 1021 cells; compounds 0.5 mM, 3 hours at 30° C.
S. meliloti cells = test: Organic acids exuded by S. meliloti cells (HPLC, GC-MS); format: cell-based; settings: minimal medium containing 5% PR as the sole phosphate source; IAA 0.5 mM where added
Method: For phosphate solubilization experiments 5% Moroccan phosphate rock (PR) (Sigma-Aldrich, cat. No. 32) was used as P source. When 5% PR is used as P source to allow bacterial growth this is described as a P-limiting condition. At least five independent experiments were always performed.
The organic acids were determined by HPLC with a reverse-phase Hypersil GOLD C18 (100×4.6 mm) column (Thermo Electron Corporation). The operating conditions and quantification were previously described (20).
Organic acid fractions collected from HPLC were dried, derivatized to their tert-butyldimethylsilyl (tBDMS) derivatives and analysed on a Micromass GCT mass spectrometer (Waters corp, Manchester, UK) coupled to an Agilent 6890 Series gas chromatograph fitted with 7683 auto-sampler (Agilent Technologies, Palo Alto, Calif.) and ZB-5 ms (Phenomenex, Macclesfield, UK) caplillary column (30 m×0.25 mm I.D.×0.25 μm d.f. with 5 m Guardian). Samples were injected using splitless injection technique at 250° C. and a helium gas flow of 2.0 ml min^−1. The oven was set at 70° C. for 2 min, then ramped at 7° C. min^−1 to 350° C. and held for 5 min. The GC interface and source temperatures were set to 250° C. and EI^+ mass spectra were acquired at 70 eV from 0 to 47 min with an acquisition rate of 1 spectra/sec. Chromatographic peaks were identified either from existing mass spectral and retention time data from standards previously analysed at Rothamsted Research LTD (Harpenden Herts, UK) or from the NIST mass spectral database in conjunction with retention data obtained from the literature (30). Determination of the accurate mass, to within 5 ppm, of M^+, M-15^+, M-57^+ was used to verify analyte identifications. The chromatograms obtained for each sample were compared to the derivatization reagent blank.

S. meliloti 1021 = test: Microarray gene expression of 1021 cells treated with 0.5 mM compound; settings: 1021 + 0.5 mM IAA vs untreated 1021; P-sufficient (13 mM);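 also: cells were harvested 3 h after the start of each treatment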
Method: For P starvation experiments, cells of 1021 wild-type and RD64 strains were grown at 30° C. to mid exponential phase (OD600=0.6) in RMM broth containing 1% (w/v) mannitol as carbon source and 13 mM P, washed with RMM containing 0 P, resuspended in the same medium and then divided into three cultures. No P (−P), 1.0 mM P (P-starved cells) or 13 mM P (+P cells also named P-sufficient cells) was added into the three cultures, respectively. The P-starved and P-sufficient 1021 wild type cells were treated for 3.0 hours with 0.5 mM IAA. […] To rule out that this bacteria could be partially starved for Trp, RD64 cells were also treated with 0.5 mM Trp and used for microarrays and RT-PCR analyses. […] After 3 hours of each treatment, cell batches were collected, freezed and stored at −80° C. for use in experiments.

[2] = system: pho operon genes in S. meliloti cells; test: Quantitative RT-PCR analysis of pho operon genes; format: cell-based; settings: compounds 0.5 mM, 3 hours
Method: FIG. S1. Quantitative RT-PCR analysis of pho operon genes in S. meliloti cells under P-sufficient conditions (13 mM K-phosphate). The relative expression level was >1 for genes more highly expressed in RD64 and in 1021 cells treated for 3 hours with 0.5 mM IAA, Ind, Trp, ICA and 2,4-D. The relative expression level was <1 for genes more highly expressed in 1021 cells (control). Error bars represent the standard deviation from three independent biological experiments.
FIG. 1. Quantitative RT-PCR analysis of pho operon genes expression in S. meliloti cells under P-starving conditions. The relative expression level was >1 for genes more highly expressed in RD64 and in 1021 cells treated for 3 hours with 0.5 mM IAA, Ind, Trp, ICA and 2,4-D. The relative expression level was <1 for genes more highly expressed in 1021 cells (control). Error bars represent the standard deviation from five independent biological experiments (p<0.05).
Total RNA from P-sufficient and P-starved cells was isolated as previously described (5). cDNA were synthesized with the StrataScript™ reverse transcription reagents (Stratagene) and random hexamers as primers. Quantitative PCR was performed with the Power SYBR PCR Master Mix (Applied Biosystems). Reactions were run on the iCycler iQ (Bio-Rad). The thermo cycling condition were: 15 min at 95° C., 40 cycles of denaturation at 95° C. for 20 s, annealing (20 s) and extension (35 s) at 72° C. Specific primer pairs, designed using the Primer3 software, are shown.
smc02641 and smc00128 were used as housekeeping genes for data normalization in the comparative Ct method as previously described (8). Phosphatase Activity

For `O=C(O)CCC(O)C(=O)O` (centres unmarked) [2-hydroxyglutaric acid], the “P solubilization upon exogenous addition of 2-hydroxyglutaric acid” value ([1]; sterilized medium, level comparable to that released during Mt-RD64 plant growth (115.2 mg/l)) was “highest”.

With `O=C(O)Cc1c[nH]c2ccccc12` [IAA, indole-3-acetic acid] the acid phosphatase activity (acid phosphatase) was “increase”, the “concentration of soluble P in bacteria free media” value ([1]; bacteria free media with addition of IAA (0.5 mM)) was “negligible” and the “Organic acid content, Fumarate” value (S. meliloti cells) was 1.7 ± 0.1 mg/L. The “Organic acid content, Malate” value (S. meliloti cells) was 86 ± 10 mg/L, the “Organic acid content, Succinate” value (S. meliloti cells) was 864 ± 79 mg/L and the “M (log2 ratio of intensities) Mc01302 rplP” value (S. meliloti 1021) was −1.862. The “M (log2 ratio of intensities) SMa1118 hspC2” value (S. meliloti 1021) was 1.296, the “M (log2 ratio of intensities) SMb20893 gguB” value (S. meliloti 1021) was 1.754 and the “M (log2 ratio of intensities) SMb20895 chvE” value (S. meliloti 1021) was 1.425. For the same molecule, the “M (log2 ratio of intensities) SMb20922 smb20922” value (S. meliloti 1021) was 1.711, the “M (log2 ratio of intensities) SMb21174 phoT” value (S. meliloti 1021) was −1.207 and the “M (log2 ratio of intensities) SMb21177 phoC” value (S. meliloti 1021) was −0.7939. The “M (log2 ratio of intensities) SMb21183 htpG” value (S. meliloti 1021) was 1.384, the “M (log2 ratio of intensities) SMb21197 oppB” value (S. meliloti 1021) was 1.111 and the “M (log2 ratio of intensities) SMc00363 rpmI” value (S. meliloti 1021) was −0.9807. For the same molecule, the “M (log2 ratio of intensities) SMc00364 rplT” value (S. meliloti 1021) was −0.715, the “M (log2 ratio of intensities) SMc00568 rpsF” value (S. meliloti 1021) was −0.7616 and the “M (log2 ratio of intensities) SMc01103 rbsK” value (S. meliloti 1021) was 1.2. For the same molecule, the “M (log2 ratio of intensities) SMc01169 ald” value (S. meliloti 1021) was 3.025, the “M (log2 ratio of intensities) SMc01291 rpmD” value (S. meliloti 1021) was −1.237 and the “M (log2 ratio of intensities) SMc01295 rpsH” value (S. meliloti 1021) was −0.8996. The “M (log2 ratio of intensities) SMc01296 rpsN” value (S. meliloti 1021) was −0.8326, the “M (log2 ratio of intensities) SMc01301 rpmC” value (S. meliloti 1021) was −1.273 and the “M (log2 ratio of intensities) SMc01309 rplC” value (S. meliloti 1021) was −0.7247. For the same molecule, the “M (log2 ratio of intensities) SMc01319 rplJ” value (S. meliloti 1021) was −1.438, the “M (log2 ratio of intensities) SMc01628 smc01628” value (S. meliloti 1021) was 0.7123 and the “M (log2 ratio of intensities) SMc02475 smc02475” value (S. meliloti 1021) was 0.7339. The “M (log2 ratio of intensities) SMc02514 smc02514” value (S. meliloti 1021) was 1.764, the “M (log2 ratio of intensities) SMc02729 smc02729” value (S. meliloti 1021) was 0.8942 and the “M (log2 ratio of intensities) SMc02786 smc02786” value (S. meliloti 1021) was 1.11. For the same molecule, the “M (log2 ratio of intensities) SMc03168 smc03168” value (S. meliloti 1021) was 1.165, the “M (log2 ratio of intensities) SMc04087 smc04087” value (S. meliloti 1021) was 1.593 and the “expression level of all five pho genes (RT-PCR)” value ([2]; P-starved conditions, vs control 1021) was “highly induced”. The “phoB regulatory gene expression (qRT-PCR)” value ([2]; P-sufficient (13 mM K-phosphate), vs untreated 1021 cells) was “down-regulated”.
